The values that follow come from patent US20200255492A1, “LEPTIN PEPTIDES AND THEIR USE FOR TREATING NEUROLOGICAL DISORDERS” (UNIVERSITY OF DUNDEE, priority 2017, published 2020).

The test system of assay [1] is tau in hippocampal neurons. The experiment in a line: Immunocytochemistry of endogenous tau and tau/PSD-95 co-localization. The assay is classed as cell-based, Sprague-Dawley rats. The conditions noted are these: Aβ1-42 1 μM plus leptin/fragment 10 nM or SB216763 100 nM. Here is the method:
Hippocampal cultures were prepared as previously (Moult et al, 2010). Neonatal Sprague-Dawley rats (1-3 d old) were […] killed by cervical dislocation in accordance with the UK Animals (Scientific Procedures Act) 1986 legislation. Hippocampi were removed, and after washing in HEPES-buffered saline comprising (mM) 135 NaCl; 5 KCl; 1 CaCl2; 1 MgCl2; 10 HEPES; and 25 D-glucose at […], were treated with papain (1.5 mg ml21; Sigma-Aldrich) for 20 min at 37° C. Dissociated cells were plated onto sterile dishes (35 mm diameter; Greiner Bio-One, Kremsmun-ster, Austria) treated with poly-D-lysine (20 μg ml^−1; 1-2 h). Cultures were maintained in serum replacement medium (SR2; Sigma-Aldrich) in a humidified atmosphere of 5% CO2 and […] at 37° C. for up to 2 wk.
Immunocytochemistry was conducted on primary hippocampal cultures (7-14 DIV). Prior to labelling with antibodies, neurons were washed with HBS containing glycine (0.01 mM) and incubated with agents for 1 h at room temperature. Cultures were fixed with 4% paraformaldehyde for 5 min, then permeabilized with 0.1% Triton X-100 for 5 min. To label endogenous tau, neurons were incubated with a rabbit anti-tau (Ab-217; Genscript) primary antibody (1:200 dilution) at room temperature for 30 min, followed by incubation with an Alexa Fluor555 donkey anti-rabbit (1:250, Invitrogen) secondary antibody for an additional 30 min duration. To assess the % co-localisation of tau at synapses, neurons were dual labelled with an antibody against the synaptic marker, PSD-95 (mouse anti-PSD-95; 1:500, Thermo Fisher) followed by application of an Alexa Fluor488 goat anti-mouse secondary antibody (1:500, Invitrogen).
A Zeiss LSM510 confocal microscope was used for image acquisition and analysis. Images were obtained using a 10-s scan speed in single tracking mode or multi-tracking mode for dual labelling experiments. The intensity of immunostaining was measured off-line using Lasersharp software (Zeiss Lasersharp), whereby analysis lines of 50 μm length were drawn along randomly selected dendritic regions. All data were obtained from at least three different cultures from different animals. Imaging conditions including illumination intensity and photomultiplier gains were kept constant between treatments for each experiment. In addition, data were normalised relative to the mean fluorescence intensity obtained from control neurons. For synaptic co-localisation experiments, tau and PSD-95 positive immunostaining were compared. The number of tau-positive sites that co-localized with PSD-95 positive sites were counted and expressed as a percentage of total positive sites (peaks of intensity).

Assay [2] has as its system differentiated human neural cells (SH-SY5Y). Briefly: LDH release assay (membrane leakage, cell death). Type of assay: cell-based. The conditions noted are these: 10 μM Aβ1-42; for reduction of LDH release compared with Aβ1-42 alone, hexamer study: 10 nM, n=11. On the procedure:
(§1) The human neuroblastoma cell line, SH-SY5Y (ECACC, UK) was maintained in Dulbecco's Modified Eagle Medium supplemented with glucose ([…]) and 10% (v/v) cosmic calf serum (Fisher Scientific, UK) at 37° C. in a humidified atmosphere of 5% CO2, 95% air and allowed to reach 70-80% confluence before seeding. Cells (passage 10-18) were plated at 10 000 cells per well in 96 well tissue culture plates (Nunc, VWR, UK) and at a density of 2×10^5 cells in 35 mm dishes for protein extraction. To induce differentiation, cells were cultured in DMEM supplemented with glucose ([…]), 1% (v/v) cosmic calf serum and 10 μM retinoic acid for 5 days. Thereafter they were incubated in DMEM supplemented with glucose ([…]), serum replacement 2 (2%; Sigma, UK) and 18 μM 5-fluorodeoxyuridine to inhibit proliferation of undifferentiated cells. The 50% of the medium was changed every 2-3 days and pharmacological treatment was carried out 7 days after switching to this medium. Reagents used were (from Sigma UK unless stated) 0.1-10 nM human leptin and leptin (116-130); 0.1-10 nM leptin (22-56; Bachem; Switzerland); 10 nM leptin (116-121) leptin (117-122), leptin (124-129) or leptin (125-130; all Severn Biotech, UK); 5 μM copper chloride; […], 5 μM WP1066 or 50 nM wortmannin. All treatments were added to the culture at the same time and survival assays were carried out after 96 h treatment. Protein samples for signaling ELISA were extracted 3 h after exposure to the relevant reagents and for biomarker expression after 72 hours.
(§2) The concentration of lactate dehydrogenase (LDH) in the culture medium or the mitochondrial activity within cells was used to monitor the level of cell death, as previously (Oldreive and Doherty 2010). In certain experiments, a Crystal violet assay was used to assess total cell number. Cells were fixed in neutral buffered formalin and washed 3 times in PBS prior to staining with 0.01% crystal violet acetate for 5 min. Plates were washed 5-10 times in dH2O and cells solubilised in 100 μl dimethyl sulfoxide (DMSO) before reading the absorbance on a Biohit BP100 plate reader. For all assays, data is expressed as percentage relative to control, untreated wells to normalize for differences in plating density between individual experiments.
To determine whether leptin (116-130) has neuroprotective actions, the effects of leptin (116-130) on the viability of differentiated human neural cells (SH-SY5Y) was examined after exposure to either 5 μM CuCl2 or 10 μM Aβ1-42. Cells were treated with the toxin alone or with a range of concentrations (10-0.1 nM) of leptin or leptin (116-130). […] Thus like leptin, treatment with leptin (116-130) reduces neuronal death in response to AD-linked toxins in vitro.
Background: LDH in the medium is a marker of cell lysis.

The subject of another assay is acute hippocampal slices. Briefly: HFS-induced LTP with leptin hexamers. Type of assay: cell-based, Sprague Dawley rats. The conditions noted are these: 10 nM for 50 min prior to HFS; control LTP 117±10.8% / 125±4.9%. On the procedure: Parasagittal hippocampal slices (300 μm) were prepared from either P13-21 or 12-24-week-old male Sprague Dawley rats as previously (Moult et al. 2010). Brains were rapidly removed and placed in ice-cold artificial CSF (aCSF; bubbled with 95% O2 and 5% CO2) containing the following (in mm): 124 NaCl, 3 KCl, 26 NaHCO3, 1.25 NaH2PO4, 2 CaCl2, 1 MgSO4, and 10 d-glucose. Once prepared, parasagittal slices were allowed to recover at room temperature in oxygenated aCSF for 1 h before use. Slices were transferred to a submerged chamber maintained at room temperature and perfused with artificial cerebrospinal fluid at 2 ml min^−1. Standard extracellular recordings were used to monitor evoked field excitatory postsynaptic potentials (fEPSP) from stratum radiatum. The Schaffer collateral-commissural pathway was stimulated (constant voltage; 0.1 ms) at 0.033 Hz, using a stimulus intensity that evoked a peak amplitude ˜50% of the maximum. Synaptic potentials were low pass filtered at 2 kHz and digitally sampled at 10 kHz. The fEPSP slope was measured and expressed relative to baseline. Synaptic records are the average of 4 consecutive responses and stimulus artefacts are blanked for clarity. Recordings were made using an Axopatch 200B amplifier and analyzed using LTP v2.4 software. In synaptic plasticity studies, the degree of potentiation was calculated 30-35 min after HFS and expressed as a percentage of baseline±standard error of mean (SEM).
To determine if the leptin hexamers influence the magnitude of activity-dependent synaptic plasticity, standard extracellular recording techniques were used to assess the effects of leptin (116-121, 117-122, 118-123, 120-125, 124-129 and 125-130) on the magnitude of LTP induced by high frequency stimulation (100 Hz, 1 s) in acute hippocampal slices. […] In parallel studies, application of leptin (118-123; 158±3.8%; n=7; p<0.05; FIG. 8) or leptin (120-125; to 163±8.8% of baseline; n=5; p<0.05) also facilitated LTP, compared to control LTP (FIG. 8).

Assay [3] relates to GluA1 surface expression in cultured hippocampal neurons. Briefly: Surface labelling of AMPA receptor subunit GluA1 (immunocytochemistry). Type of assay: cell-based, Sprague Dawley rats. The conditions noted are these: for GluA1 surface expression, hexamer study: 10 nM, 15 min.
Assay [4] concerns phosphorylated tau (p-tau). Briefly: ELISA of phosphorylated tau relative to α-tubulin. The assay is classed as cell-based, human. The conditions noted are these: 10 nM; n=5. Here is the method:
as §1
Protein from cultures was extracted into 500 μl Tris-buffered saline containing protease inhibitor cocktail, and a Bradford assay used to determine protein concentration. Samples were diluted to give equal loading onto ELISA plates. Commercially available ELISA kits were used in accordance with the manufacturer's instructions to determine the ratio of pan-STAT3 to phospho-STAT3 (Sigma, UK) and pan-Akt to phospho-Akt (Sigma, UK) and the levels of alpha-tubulin and phosphorylated tau (Sigma, UK). Each protein sample was run in duplicate using samples derived from at least 5 biological repeats.
Hyper-phosphorylation of tau is the underpinning mechanism of the development of neurofibrillary tangles—one of the key pathological feature of AD. Human SH-SY5Y neuronal cells were exposed to Aβ1-42 alone or in combination with 10 nM leptin, leptin (116-130), leptin (116-121), leptin (117-122), leptin (124-129) or leptin (125-130). Protein was extracted for ELISA assay and the ratio of p-tau to the house-keeping protein α-tubulin determined (FIG. 11C). […] Thus for Aβ1-42-treated cells, 10 nM leptin and 10 nM leptin (116-130) reduced p-tau expression by 56.2±8.0% and 58.9+4.6% respectively compared with Aβ1-42 alone (n=5; P<0.001; FIG. 11C); an effect that was mirrored by 10 nM leptin (116-121) and leptin (117-122); 58.1±4.0% and 45.48±6.1% (n=5; P<0.001 and P<0.01 respectively; FIG. 11C), but not by 10 nM leptin (124-129) or leptin (125-130)(n=5; P>0.5; FIG. 11C).

Assay [5] relates to differentiated SH-SY5Y human neuronal cells. The experiment in a line: MTT assay of mitochondrial activity (cell viability). The assay is classed as cell-based. The conditions noted are these: 10 nM; n=11. Here is the method: as §1, §2
To confirm the findings of the LDH assay, cells were treated with Aβ1-42 alone or with a 10 nM of leptin, leptin (116-130) or the listed hexamers, and mitochondrial activity, as a measure of cell viability, determined by MTT assay. A significant increase in mitochondrial activity was detected following treatment with either leptin or leptin (116-130; both 10 nM). […] Thus for Aβ1-42-treated cells, 10 nM leptin and 10 nM leptin (116-130) increased mitochondrial activity by 32.6±5.2% and 40.9+5.8% respectively compared with Aβ1-42 alone (n=11; P<0.001; FIG. 11B); an effect that was mirrored by 10 nM leptin (116-121) and leptin (117-122); 43.61±3.9% and 40.5±3.7*% (n=11; P<0.001; FIG. 11B), but not by 10 nM leptin (124-129) or leptin (125-130) (n=11; P>0.5; FIG. 11B). This reinforces the findings from the LDH assay that similar to either leptin or leptin (116-130), treatment with leptin (116-121) or leptin (117-122) reduces neuronal death in response to AD-linked toxins in vitro.
(In general: Formazan colour is commonly taken as a measure of viable cells.)

As to `Cn1cc(C2=C(c3ccc(Cl)cc3Cl)C(=O)NC2=O)c2ccccc21` [SB216763, reference compound], in assay [1], the “% co-localization of tau and PSD-95 in Aβ1-42-treated neurons” value is recorded as “decreased % tau/PSD-95 co-localization”; the “relative tau intensity in Aβ1-42-treated neurons” value is reported as “mirrors the effects of leptin”.

On to `C[C@H](NC(=O)/C(C#N)=C/c1cccc(Br)n1)c1ccccc1` [WP1066, reference compound], for which the “effect of inhibitor on leptin (116-130)-mediated neuroprotection (LDH)” value in assay [2] (WP1066 5 μM, wortmannin 50 nM) was “prevented leptin (116-130)-mediated neuroprotection”.

Regarding “GLQKPE (listed as Mus musculus) [leptin (124-129)]”, in the assay on acute hippocampal slices, the “magnitude of LTP after HFS (100 Hz, 1 s)” value was 137±5.6 % of baseline. Besides, in assay [2], the “reduction of LDH release compared with Aβ1-42 alone, hexamer study” value is reported as “did not”. The “GluA1 surface expression, hexamer study” value in assay [3] was 89±6 % of control. In assay [4], the “reduction of p-tau expression compared with Aβ1-42 alone” value is listed as “did not”. Further, in assay [5], the “increase in mitochondrial activity compared with Aβ1-42 alone” value is listed as “did not”.

As for “LQKPES (SCHLPWASGL; listed as Homo sapiens) [leptin (125-130)]”, the “magnitude of LTP after HFS (100 Hz, 1 s)” value with acute hippocampal slices was 137±2.4 % of baseline. Besides, the “reduction of LDH release compared with Aβ1-42 alone, hexamer study” value in assay [2] is “did not”. In addition, the “GluA1 surface expression, hexamer study” value in assay [3] is 98±5 % of control. In addition, the “reduction of p-tau expression compared with Aβ1-42 alone” value in assay [4] is “did not”. Also, the “increase in mitochondrial activity compared with Aβ1-42 alone” value in assay [5] was “did not”.

With “PQTSGL (listed as Mus musculus) [leptin (120-125)]”, the “magnitude of LTP after HFS (100 Hz, 1 s)” value in the assay with acute hippocampal slices was 163±8.8 % of baseline. For the same compound, the “GluA1 surface expression, hexamer study” value in assay [3] is “increased the surface expression of GluA1”.

With “SLPQTS (listed as Mus musculus) [leptin (118-123)]”, the “magnitude of LTP after HFS (100 Hz, 1 s)” value in the assay with acute hippocampal slices is given as 158±3.8 % of baseline. Also, the “GluA1 surface expression, hexamer study” value in assay [3] is on record as “increased the surface expression of GluA1”.

On to “bisperoxovanadium [bpV, reference compound]”, for which the “GluA1 surface expression, agent alone (PTEN study)” value in assay [3] (bpV 50 nM, 30 min) is recorded as 148±8 % of control.

In the case of “leptin (121-126): leptin fragment amino acids 121-126 (WASGLE; UniProt P41159 121-126, looked up, fragment)”, the “GluA1 surface expression, hexamer study” value in assay [3] is recorded as “failed to significantly alter the surface expression of GluA1”.

Regarding “leptin (122-128): leptin fragment amino acids 122-128 (ASGLETL; UniProt P41159 122-128, looked up, fragment)”, in assay [3], the “GluA1 surface expression, hexamer study” value was “failed to significantly alter the surface expression of GluA1”.
